The test concerns Plasmodium falciparum. Briefly: In vitro inhibition of Plasmodium falciparum in [3H]hypoxanthine incorporation assay. Type of test: functional, organism-based.
In general, IC50 refers to the midpoint of a concentration-inhibition curve. `CC1(C)C(=O)C2=C(OO[C@]3(C)CO[C@H]23)C(C)(C)C1=O` came in with a half-inhibitory concentration (IC50) above 100 µM.
`CO[C@]12OOC(C)(C)C=C1C(=O)C(C)(C)C(=O)C2(C)C` gave an IC50 of 0.28 µM.
The figure for `CO[C@]12OO[C@@](C)(CO[Si](c3ccccc3)(c3ccccc3)C(C)(C)C)C=C1C(=O)C(C)(C)C(=O)C2(C)C` is 1.5 µM; for `CO[C@]12OO[C@](C)(CO[Si](c3ccccc3)(c3ccccc3)C(C)(C)C)C=C1C(=O)C(C)(C)C(=O)C2(C)C` it is 1.4 µM; for `CC1(C)C(=O)C2=C[C@@](C)(CO)OO[C@]2(O)C(C)(C)C1=O` it is above 100 µM.
Regarding `CO[C@]12OO[C@@](C)(CO)C=C1C(=O)C(C)(C)C(=O)C2(C)C`, half-maximal inhibition (IC50) required 1.4 µM.
The figure for `CC(=O)OC12OOC(C)(C)C=C1C(=O)C(C)(C)C(=O)C2(C)C` (configuration not stated) is 20.5 µM; for `CC1(C)C=C2C(=O)C(C)(C)C(=O)C(C)(C)[C@@]2(O)OO1` it is 36 µM; for `C[C@@H]1CC[C@H]2[C@@H](C)C(=O)O[C@@H]3O[C@@]4(C)CC[C@@H]1[C@]32OO4` [ARTEMISININ] it is 0.015 µM.
`CC1(C)C(=O)C2=C[C@](C)(CO)OO[C@]2(O)C(C)(C)C1=O` showed a half-inhibitory concentration (IC50) above 100 µM.
The same measure for `CO[C@]12OO[C@](C)(CO)C=C1C(=O)C(C)(C)C(=O)C2(C)C`: 40 µM; for `CC1(C)C=C2C(=O)C(C)(C)C(=O)C(C)(C)C2(F)OO1` (configuration not stated): above 100 µM.

For the origin of these results see ChEMBL document CHEMBL1137965, “Crucial role of the peroxyketal function for antimalarial activity in the G-factor series” (Bioorg Med Chem Lett, 2004).
